Assay results published in US6713527B2, “Anaesthetic bone cement” (Queen's University at Kingston, priority 1997, dated 2004).
Structures can show the parent of a compound that is named as a salt.

Tests used:
[1] = Elution/release of anaesthetic from DePuy bone cement discs (Example 2); format: physicochemical; settings: for anaesthetic released after 72 h, percentage of amount incorporated / anaesthetic released over 72 hours, percentage of amount incorporated: discs in 0.2% saline, 37° C.; for effect of particle size on release profile: crystals 75 to 150 um, 150 to 250 um, >250 um, 72 hours
Description: Crystalline lidocaine base from three manufacturers (Sigma, Spectrum, and Wyckoff) was used in these studies. It was observed that the relative proportions of crystals of different size varied substantially among the three brands. Thus, an initial study compared the effect of crystal size on elution and release characteristics using Spectrum lidocaine base. Crystals were sorted using a series of molecular sieves into three groups (small, 75 to 150 um; medium, 150 to 250 um; and large, >250 um) and 2.0 g samples from each group were incorporated into bone cement and tested, as indicated below.
All studies adhered to the following procedure: Forty grams of bone cement (DePuy CMW3 unless otherwise specified) were mixed with 2.0, 0.5, 0.05, or 0.005 g of liquid or crystalline anaesthetic (lidocaine: Sigma, Spectrum, Wyckoff; prilocaine: Colour Your Enzyme, Queen's University, Kingston, Ontario, Canada). The polymerization initiated mixtures were formed into discs 50 mm×1 mm and allowed to cure. The cured discs were then placed in a solution (100 ml) containing 0.2% saline, and kept at 37° C. in a shaking water bath. 1 ml aliquots were taken at 0, 1, 2, 3, 4, 6, 24, 48 and 72 hours and to each was added 1 μg/ml bupivacaine as an internal standard. 50 μl aliquots were subjected to HPLC using a Beckman reverse phase column having a mobile phase of 40 mM ammonium phosphate:acetonitrile (60:40) and a flow rate of 1 ml/min, followed by electrochemical detection, to determine the amount of anaesthetic in each sample.
The percentage of anaesthetic released was calculated from the mass of the bone cement/anaesthetic mixture: anaesthetic (e.g., 0.05 g)+bone cement powder (40 g)+bone cement liquid (17.9 g)=57.95 g. The mean mass of bone cement discs in an individual experiment was, for example, 3.75 g, which corresponds to 15.45 discs per mixture. For elution of, for example, 1000 ug after 72 hours, 1000 ug×15.45 discs=0.015 g anaesthetic released. Since 0.05 g anaesthetic was used, 30.9% was released.

[2] = Elution of lidocaine from bone cement discs (Example 1); format: physicochemical; settings: Zimmer or DePuy cement, 0.2% saline, 37° C.
Experimental: Forty grams of bone cement powder from each of three manufacturers: Howmedica (Simplex), Zimmer (Osteobond) and DePuy (CMW3), were mixed with 0.5, 1.0 and 2.0 g of gas-sterilized crystalline lidocaine base (Xylocaine, Astra Pharmaceuticals). The polymerization initiated mixtures were formed into discs 50 mm×1 mm and allowed to harden. The hardened discs were then placed in a stirred solution (100 ml) containing 0.2% saline at 37° C. 100 μl aliquots were taken at 1, 2, 3, 4, 6, 24, 48 and 72 hours and subjected to HPLC with electrochemical detection analysis to determine the lidocaine level in each sample.

[3] = eluted from Howmedica bone cement; knee surgery of Example 3
[4] = lidocaine added to CMW3 vs CMW3
Experimental: Lidocaine (Xylocaine, Astra Pharmaceuticals) was combined with DePuy CMW3 bone cement as described in Example 1, and mechanical properties including dough time, setting time, exotherm, compressive strength, flexural strength, flexural modulus, and impact strength were analyzed.

[5] = 2.0 g anaesthetic per 40 g DePuy CMW Endurance bone cement
[6] = 0.5, 1.0, 2.0 g per 40 g Howmedica
[7] = 0.05 g anaesthetic per 40 g DePuy CMW3 bone cement, HCl

CCCNC(C)C(=O)Nc1ccccc1C (centres unmarked) [liquid prilocaine base, prilocaine]
anaesthetic released after 72 h, percentage of amount incorporated [1, 5]: about 0.3% | initial release of anaesthetic ([1]; 2.0 g in DePuy CMW3, compared with crystalline prilocaine base and both forms of lidocaine base (FIG. 4)): greatest

CCN(CC)CC(=O)Nc1c(C)cccc1C [crystalline lidocaine base, lidocaine]
amount eluted in relation to amount in the mixture [2, 6]: proportional to the amount of lidocaine in the mixture | period of maximum rate of elution [2, 6]: first 24 hours | time of peak dose in elution curve [2, 6]: ~6 h | period of sustained release ([2]; test period, Howmedica): 72 h | anaesthetic released over 72 hours, percentage of amount incorporated ([1]; 2.0 g anaesthetic per 40 g DePuy CMW3 bone cement): about 1% | anaesthetic released after 72 h, percentage of amount incorporated [1, 5]: about 0.3% | anaesthetic released over the 72 hour period, percentage of amount incorporated ([1]; 2.0 g sieved crystals, all size groups (75 to 150 um, 150 to 250 um, >250 um), DePuy CMW3): about 1% | effect of particle size on release profile ([1]; DePuy CMW3): no effect of particle size | persistence of analgesic effect [3]: at least 24 hours | time from application of bone cement to analgesic effect [3]: ≤ 6 h | effect on compressive strength, flexural strength or flexural modulus [4]: little effect | improvement of impact strength [4]: about 10% | increase of cement setting time [4]: about 40% | increase of doughing time, factor [4]: 3

CCN(CC)CC(=O)Nc1c(C)cccc1C [crystalline lidocaine HCl, lidocaine HCl]
anaesthetic released over 72 hours, percentage of amount incorporated [1, 7]: about 25% | anaesthetic released over 72 hours, percentage of amount incorporated ([1]; 0.05 g anaesthetic per 40 g DePuy CMW3 bone cement, listed as lidocaine HCl, HCl): about 25% | anaesthetic released over 72 hours, percentage of amount incorporated ([1]; 0.5 g anaesthetic per 40 g DePuy CMW3 bone cement): about 33% | anaesthetic released after 72 h, percentage of amount incorporated ([1]; 0.5 g anaesthetic per 40 g DePuy CMW Endurance bone cement): 23% | effect of particle size on release profile ([1]; DePuy CMW3, HCl): Smaller particles eluted faster

CCN(CC)CC(=O)Nc1c(C)cccc1C [liquid lidocaine HCl, lidocaine HCl]
anaesthetic released over 72 hours, percentage of amount incorporated [1, 7]: 0.3%

CCCNC(C)C(=O)Nc1ccccc1C (centres unmarked) [crystalline prilocaine base, prilocaine]
anaesthetic released after 72 h, percentage of amount incorporated [1, 5]: about 0.4%
